Reference: patent publication US10227358B2, “Hydroxyester derivatives, a process for their preparation and pharmaceutical compositions containing them” (LES LABORATOIRES SERVIER, priority 2015, dated 2019)

The molecules below were run against Mcl-1 protein (UniProtKB Q07820) (Homo sapiens, UniProt Q07820) (assay: Inhibition of Mcl-1 by the fluorescence polarisation technique). Conditions: fluorescein labelled ligand 1 nM, Mcl-1 protein 5 nM, ~2 hours at room temperature; read-out: IC50 (μM) Mcl-1 FP.
Chain of Mcl-1 protein (Q07820 whole entry): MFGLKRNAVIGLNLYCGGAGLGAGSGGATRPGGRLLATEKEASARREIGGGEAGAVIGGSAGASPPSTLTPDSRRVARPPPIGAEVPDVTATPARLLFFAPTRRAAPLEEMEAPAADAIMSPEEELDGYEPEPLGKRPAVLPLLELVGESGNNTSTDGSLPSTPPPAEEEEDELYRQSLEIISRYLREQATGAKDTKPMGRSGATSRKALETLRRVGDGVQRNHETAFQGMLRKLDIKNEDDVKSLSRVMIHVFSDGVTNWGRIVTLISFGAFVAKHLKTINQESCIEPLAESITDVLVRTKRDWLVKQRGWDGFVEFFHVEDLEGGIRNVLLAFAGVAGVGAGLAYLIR
Type: binding
Protocol: The relative binding potency of each compound was determined via Fluorescence Polarisation (FP). The method utilised a Fluorescein labelled ligand (Fluorescein-βAla-Ahx-A-REIGAQLRRMADDLNAQY-OH; mw 2,765) which binds to the Mcl-1 protein (such that Mcl-1 corresponds to the UniProtKB® primary accession number: Q07820) leading to an increased anisotropy measured in milli-polarisation (mP) units using a reader. The addition of a compound which binds competitively to the same site as the ligand will result in a greater proportion of unbound ligand in the system indicated by a decrease in mP units.
An 11 point serial dilution of each compound was prepared in DMSO and 2 μl transferred into flat bottomed, low binding, 384-well plate (final DMSO concentration 5%). 38 μl of buffer (10 mM 4-(2-hydroxyethyl)-1-piperazineethanesulfonic acid [HEPES], 150 mM NaCl, 0.05% Tween 20, pH 7.4), containing the Fluorescein labelled ligand (final concentration 1 nM) and Mcl-1 protein (final concentration 5 nM) was then added.
Assay plates were incubated ˜2 hours at room temperature before FP was measured on a […] Synergy2 reader (Ex. 528 nm, Em. 640 nm, Cut off 510 nm) and mP units calculated. The binding of increasing doses of test compound was expressed as a percentage reduction in mP compared to a window established between ‘5% DMSO only’ and ‘100% inhibition’ controls. 11-point dose response curves were plotted with XL-Fit software using a 4-Parameter Logistic Model (Sigmoidal Dose-Response Model) and the inhibitory concentrations that gave a 50% reduction in mP (IC50) were determined.

SMILES | IC50
COc1ccccc1-c1nccc(COc2ccccc2CC(Oc2ncnc3sc(-c4ccc(F)cc4)c(-c4ccc(OCCN5CCN(C)CC5)c(Cl)c4C)c23)C(=O)OC(C)OC(=O)OC(C)(C)C)n1 [Example 4, 1-[(tert-butoxycarbonyl)oxy]ethyl (2R)-2-{[(5Sa)-5-{3-chloro-2-methyl-4-[2-(4-methylpiperazin-1-yl)ethoxy]phenyl}-6-(4-fluorophenyl)thieno[2,3-d]pyrimidin-4-yl]oxy}-3-(2-{[2-(2-methoxyphenyl)pyrimidin-4-yl]methoxy}phenyl)propanoate] | 0.959 µM
COc1ccccc1-c1nccc(COc2ccccc2CC(Oc2ncnc3sc(-c4ccc(F)cc4)c(-c4ccc(OCCN5CCN(C)CC5)c(Cl)c4C)c23)C(=O)OC(C)OC(=O)OC2CCCC2)n1 [Example 5, 1-{[(cyclopentyloxy)carbonyl]oxy}ethyl (2R)-2-{[(5Sa)-5-{3-chloro-2-methyl-4-[2-(4-methylpiperazin-1-yl)ethoxy]phenyl}-6-(4-fluorophenyl)thieno[2,3-d]pyrimidin-4-yl]oxy}-3-(2-{[2-(2-methoxyphenyl)pyrimidin-4-yl]methoxy}phenyl)propanoate] | 0.37 µM
CCCCCCCCOC(=O)OC(C)OC(=O)C(Cc1ccccc1OCc1ccnc(-c2ccccc2OC)n1)Oc1ncnc2sc(-c3ccc(F)cc3)c(-c3ccc(OCCN4CCN(C)CC4)c(Cl)c3C)c12 [Example 6, 1-{[(octyloxy)carbonyl]oxy}ethyl (2R)-2-{[(5Sa)-5-{3-chloro-2-methyl-4-[2-(4-methylpiperazin-1-yl)ethoxy]phenyl}-6-(4-fluorophenyl)thieno[2,3-d]pyrimidin-4-yl]oxy}-3-(2-{[2-(2-methoxyphenyl)pyrimidin-4-yl]methoxy}phenyl)propanoate] | 0.51 µM
COc1ccccc1-c1nccc(COc2ccccc2CC(Oc2ncnc3sc(-c4ccc(F)cc4)c(-c4ccc(OCCN5CCN(C)CC5)c(Cl)c4C)c23)C(=O)OC(C)OC(=O)N(C)C)n1 [Example 7, 1-[(dimethylcarbamoyl)oxy]ethyl (2R)-2-{[(5Sa)-5-{3-chloro-2-methyl-4-[2-(4-methylpiperazin-1-yl)ethoxy]phenyl}-6-(4-fluorophenyl)thieno[2,3-d]pyrimidin-4-yl]oxy}-3-(2-{[2-(2-methoxyphenyl)pyrimidin-4-yl]methoxy}phenyl)propanoate] | 0.438 µM

More lines, in order of falling IC50, values ahead:

IC50 | SMILES
0.361 µM | CCOC(=O)OC(C)OC(=O)C(Cc1ccccc1OCc1ccnc(-c2ccccc2OC)n1)Oc1ncnc2sc(-c3ccc(F)cc3)c(-c3ccc(OCCN4CCN(C)CC4)c(Cl)c3C)c12 [Example 2, 1-[(ethoxycarbonyl)oxy]ethyl (2R)-2-{[(5Sa)-5-{3-chloro-2-methyl-4-[2-(4-methylpiperazin-1-yl)ethoxy]phenyl}-6-(4-fluorophenyl)thieno[2,3-d]pyrimidin-4-yl]oxy}-3-(2-{[2-(2-methoxyphenyl)pyrimidin-4-yl]methoxy}phenyl)propanoate]
0.292 µM | COc1ccccc1-c1nccc(COc2ccccc2CC(Oc2ncnc3sc(-c4ccc(F)cc4)c(-c4ccc(OCCN5CCN(C)CC5)c(Cl)c4C)c23)C(=O)OC(C)OC(=O)OC(C)C)n1 [Example 3, 1-{[(propan-2-yloxy)carbonyl]oxy}ethyl (2R)-2-{[(5Sa)-5-{3-chloro-2-methyl-4-[2-(4-methylpiperazin-1-yl)ethoxy]phenyl}-6-(4-fluorophenyl)thieno[2,3-d]pyrimidin-4-yl]oxy}-3-(2-{[2-(2-methoxyphenyl)pyrimidin-4-yl]methoxy}phenyl)propanoate]
0.037 µM | COC(=O)OC(C)OC(=O)C(Cc1ccccc1OCc1ccnc(-c2ccccc2OC)n1)Oc1ncnc2sc(-c3ccc(F)cc3)c(-c3ccc(OCCN4CCN(C)CC4)c(Cl)c3C)c12 [Example 1, 1-[(methoxycarbonyl)oxy]ethyl (2R)-2-{[(5Sa)-5-{3-chloro-2-methyl-4-[2-(4-methylpiperazin-1-yl)ethoxy]phenyl}-6-(4-fluorophenyl)thieno[2,3-d]pyrimidin-4-yl]oxy}-3-(2-{[2-(2-methoxyphenyl)pyrimidin-4-yl]methoxy}phenyl)propanoate]
